Reference: PMC11093748, “De novo identification of CD4^+ T cell epitopes” (Nature Methods, 2024)
Several values for one entry are separate records, joined by “and”; a condition that tells them apart may be missing. Identical values can stand only once.

Columns and labels:
Assay in all cases: I-Ag7 SABR-II library screen, enrichment score
Format in all cases: cell-based, mouse
TCR12 = details: TCR_Mean minus PREDICTED_TCR (from LIB_Mean, SLOPE 0.937219, INTERCEPT 1.54064e-5), PZ51
Description: (§1) We then asked whether SABR-IIs could be used to present a library of epitopes for CD4^+ T cell antigen discovery. To that end, we constructed a SABR-II library to present epitopes derived from pancreatic islets in I-Ag7 by curating a list of 4,075 published epitopes from the Immune Epitope Database (iedb.org)[50] and a study by Wan et al.[51] (Supplementary Table 1). Of note, this defined library consisted of unmodified epitopes from endogenous proteins, synthetic mimotopes, deamidated epitopes and hybrid insulin peptides (HIPs) that arise from post-translational fusion and are not genetically encoded in vivo[52],[53]. The epitope library was inserted into the I-Ag7 SABR-II backbone through pooled oligonucleotide synthesis, amplification and ligation-free cloning (Extended Data Fig. 3a). The I-Ag7 SABR-II-library was then expressed in NFAT–GFP Jurkat cells. We confirmed that after sequencing, the library accounted for a mean of 708 reads per epitope (Extended Data Fig. 3b). As a proof of concept, we performed co-incubation assays with Jurkat cells expressing the BDC2.5 TCR and sorted the top 1–2% of GFP^+CD69^+ cells at a rate of ~20 min per replicate with three replicates per TCR. We extracted the genomic DNA from sorted cells, amplified the SABR portion of the integrated proviruses and subjected the amplicons to Illumina sequencing (Extended Data Fig. 3c,d). The 1–2% sort gate represents >50-fold enrichment of cognate epitopes with minimal loss of signal (Extended Data Fig. 3e–h). Sequence reads were aligned to the I-Ag7 SABR-II backbone and the corresponding epitopes were scored based on their read counts. For each TCR under investigation, an enrichment score (ES) was determined for all the epitopes in a library. In each experiment, three replicates of a sort with TCR-expressing Jurkat cells were performed and reads were counted post-sequencing. In addition, three replicates of the unsorted library were also sequenced. A linear regression model was built using the unsorted library counts and used to determine the expected abundance of each epitope in the library. The ES was calculated based on the difference between the measured and the expected abundance of each epitope on a per-TCR basis (Fig. 1e). Based on ES values, two quantitative thresholds were used to determine putative cognate epitopes of a given TCR. A high-confidence zone containing clear outliers with a high ES and a low-confidence zone containing weak outliers with a moderately high ES were determined (Fig. 1e). This two-tiered strategy was used to call putative hits from screens. All the top-scoring epitopes for the BDC2.5 TCR were known BDC2.5 ligands containing the WXRM(D/E) motif (Fig. 1f,g, enriched ligands in red), a well-characterized trait of the BDC2.5 TCR[43],[54]–[56]. Across several independent experiments there was limited variation in ES values for the same TCRs and several epitopes fell into high- or low-confidence zones consistently (Extended Data Fig. 4a). Using a different TCR that was isolated from NOD mice, 4-8Ins[57], which recognized the InsB9:23 epitope ([…]), we observed a similar pattern of ES for cognate epitopes (Extended Data Fig. 4b).
(§2) We performed systematic screening of the cloned TCRs against the I-Ag7 SABR-II library. Several TCRs along with a positive control (such as BDC2.5 or 4-8Ins) were screened individually against the library for each sort (Extended Data Fig. 6a and Supplementary Table 4). High- and low-confidence ES zones for each screened TCR were defined by the ES values of the control TCR’s cognate epitopes. For all putative cognate epitopes, single SABR-IIs were constructed, expressed in NFAT–GFP Jurkat cells and used for co-incubation with the corresponding TCRs. Co-incubation assays that yielded a GFP signal higher than that obtained in assays with no TCR were determined to be positive and the epitopes deemed true cognate ligands (Extended Data Fig. 6b,c). […]

TCR17D = details: TCR_Mean minus PREDICTED_TCR (from LIB_Mean, SLOPE 0.965121, INTERCEPT 8.55929e-6), PZ52
Description: as §1, §2

TCR18 = tested on: TCR18
Description: as §1, §2

TCR1 = details: sheet TCR1-PZ44; ES = TCRObserved - TCRPredicted; TCRPredicted = LIBObserved x SLOPE + INTERCEPT; SLOPE 0.917532, INTERCEPT 2.02377e-5
Description: as §1, §2

TCR21A = details: TCR_Mean minus PREDICTED_TCR (slope 0.957287, intercept 1.04818e-5 on LIB_Mean), TCR 21A, run PZ56
Description: as §1, §2

TCR26 = details: TCR_Mean minus PREDICTED_TCR (slope 0.971972, intercept 6.87806e-6 on LIB_Mean), TCR 26, run PZ56
Description: as §1, §2

TCR28 = details: TCR_Mean minus PREDICTED_TCR (slope 0.899229, intercept 2.47291e-5 on LIB_Mean), TCR 28, run PZ57
Description: as §1, §2

TCR2 = details: sheet TCR2-PZ44; ES = TCRObserved - TCRPredicted; TCRPredicted = LIBObserved x SLOPE + INTERCEPT; SLOPE 0.908797, INTERCEPT 2.23811e-5
Description: as §1, §2

TCR32 = details: TCR_Mean minus PREDICTED_TCR (slope 0.962506, intercept 9.20103e-6 on LIB_Mean), TCR 32, run PZ98
Description: as §1, §2

TCR38 = details: I-Ag7 SABR-II library PZ101, CD4 TCR 38; TCR_Mean of 3 replicates minus PREDICTED_TCR (slope 0.968274, intercept 7.78554e-6)
Description: as §1, §2

TCR5 = tested on: TCR5
Description: as §1, §2

TCR6B = details: sheet TCR6B-PZ37; ES = TCRObserved - TCRPredicted; TCRPredicted = LIBObserved x SLOPE + INTERCEPT; SLOPE 0.908569, INTERCEPT 2.24372e-5
Description: as §1, §2

TCR7 = tested on: TCR7
Description: as §1, §2

[1] = I-Ag7 library, one biological experiment
[2] = TCR18, TCR_Mean minus PREDICTED_TCR (from LIB_Mean, SLOPE 0.92089, INTERCEPT 1.94136e-5), PZ52
[3] = sheet TCR5-PZ44, ES = TCRObserved - TCRPredicted, TCRPredicted = LIBObserved x SLOPE + INTERCEPT, SLOPE 0.90726, INTERCEPT 2.27584e-5
[4] = sheet TCR7-PZ47, ES = TCRObserved - TCRPredicted, TCRPredicted = LIBObserved x SLOPE + INTERCEPT, SLOPE 0.961246, INTERCEPT 9.5102e-6

Sequence: AKAAVEEGIVAGGGV
- Enrichment score (TCR12): -1.697e-5
- Enrichment score (TCR17D): -0.0001083
- Enrichment score (TCR18; [1]): -0.0001034
- Enrichment score (TCR18; [2]): -0.0001034
- Enrichment score (TCR1): -8.988e-5
- Enrichment score (TCR21A): -4.928e-5
- Enrichment score (TCR26): -6.247e-5
- Enrichment score (TCR28): 0.000168
- Enrichment score (TCR2): -6.466e-5
- Enrichment score (TCR32): -4.13e-5
- Enrichment score (TCR38): -6.1876e-5
- Enrichment score (TCR5; [3]): 4.678e-5
- Enrichment score (TCR6B): 0.0001193
- Enrichment score (TCR7; [1]): 0.0001251
- Enrichment score (TCR7; [4]): 0.0001251

Sequence: AEKVRNLPAGHGLNAQ
- Enrichment score (TCR12): -0.0001285
- Enrichment score (TCR17D): -0.00018
- Enrichment score (TCR18; [1]): 0.0001149
- Enrichment score (TCR18; [2]): 0.0001149
- Enrichment score (TCR1): 9.239e-5
- Enrichment score (TCR21A): 0.0001683
- Enrichment score (TCR26): 4.292e-6
- Enrichment score (TCR28): 9.652e-5
- Enrichment score (TCR2): 0.0001311
- Enrichment score (TCR32): 4.971e-5
- Enrichment score (TCR38): -3.923e-5
- Enrichment score (TCR5; [3]): 1.968e-5
- Enrichment score (TCR6B): -0.0001883
- Enrichment score (TCR7; [1]): 5.397e-5
- Enrichment score (TCR7; [4]): 5.397e-5

Sequence: ALVREGLRNVAAGANP
- Enrichment score (TCR12): -1.438e-5
- Enrichment score (TCR17D): -8.6588e-6
- Enrichment score (TCR18; [1]): -1.951e-5
- Enrichment score (TCR18; [2]): -1.951e-5
- Enrichment score (TCR1): -2.024e-5
- Enrichment score (TCR21A): -1.111e-5
- Enrichment score (TCR26): -7.519e-6
- Enrichment score (TCR28): -1.908e-5
- Enrichment score (TCR2): -2.238e-5
- Enrichment score (TCR32): -9.201e-6
- Enrichment score (TCR38): -7.786e-6
- Enrichment score (TCR5; [3]): -2.1402e-5
- Enrichment score (TCR6B): -2.303e-5
- Enrichment score (TCR7; [1]): -9.699e-6
- Enrichment score (TCR7; [4]): -9.699e-6

Sequence: AGGVAVIKAGAATEV
- Enrichment score (TCR12): -1.359e-5
- Enrichment score (TCR17D): -6.024e-5
- Enrichment score (TCR18; [1]): -7.134e-5
- Enrichment score (TCR18; [2]): -7.134e-5
- Enrichment score (TCR1): 3.28e-9
- Enrichment score (TCR21A): 3.881e-5
- Enrichment score (TCR26): -8.754e-5
- Enrichment score (TCR28): 5.039e-6
- Enrichment score (TCR2): -1.7e-5
- Enrichment score (TCR32): 9.791e-5
- Enrichment score (TCR38): 4.352e-5
- Enrichment score (TCR5; [3]): -1.203e-5
- Enrichment score (TCR6B): 0.0001547
- Enrichment score (TCR7; [1]): -2.964e-5
- Enrichment score (TCR7; [4]): -2.964e-5

Sequence: AAVEEGIVAGGGVTLL
- Enrichment score (TCR12): -3.643e-5
- Enrichment score (TCR17D): 9.065e-5
- Enrichment score (TCR18; [1]): -8.9534e-5
- Enrichment score (TCR18; [2]): -8.9534e-5
- Enrichment score (TCR1): 0.0002622
- Enrichment score (TCR21A): 7.745e-5
- Enrichment score (TCR26): -0.0002176
- Enrichment score (TCR28): -8.055e-6
- Enrichment score (TCR2): 9.944e-5
- Enrichment score (TCR32): 3.811e-5
- Enrichment score (TCR38): 0.0001517
- Enrichment score (TCR5; [1]): 2.521e-5 and 3.881e-5
- Enrichment score (TCR5; [3]): 2.521e-5
- Enrichment score (TCR6B): 4.397e-5
- Enrichment score (TCR7; [1]): 1.142e-5
- Enrichment score (TCR7; [4]): 1.142e-5
